Reference: US9133163B2, “Dihydropyrazole GPR40 modulators” (Bristol-Myers Squibb Company, priority 2012, dated 2015)
pEC50: −log10 of the molar value.

Molecular target: hGPR40 (Homo sapiens, UniProt O14842)
Assay: FDSS-based intracellular calcium assay
Assay type: cell-based
Set-up: 3xFLAG; expressed in transfected cells
Settings: intracellular Ca2+ response, cells expressing GPR40
Experimental: FDSS-Based Intracellular Calcium Assay
Compounds are dissolved in DMSO and diluted to desired concentrations with assay buffer and added to the cells as 3× solution (20 μL per well). Run fluorescence/luminescence reader FDSS (Hamamatsu) to read intracellular Ca^2+ response.

Chain of hGPR40 (O14842 whole entry): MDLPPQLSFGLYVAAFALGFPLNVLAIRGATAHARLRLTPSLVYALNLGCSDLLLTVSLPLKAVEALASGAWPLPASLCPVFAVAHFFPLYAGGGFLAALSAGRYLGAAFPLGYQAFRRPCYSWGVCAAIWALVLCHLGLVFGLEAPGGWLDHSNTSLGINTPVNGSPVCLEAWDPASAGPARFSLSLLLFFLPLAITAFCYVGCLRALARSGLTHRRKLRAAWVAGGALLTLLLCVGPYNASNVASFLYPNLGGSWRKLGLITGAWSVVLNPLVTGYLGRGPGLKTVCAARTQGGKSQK

Row | Compound | pEC50
1 | COc1cc(N2CC[C@@H](Oc3ccc(N4N=C(C(F)(F)F)[C@@H](C)[C@@H]4CC(=O)O)c(Br)c3)[C@H](C)C2)c(Cl)cn1 [Example A3, 2-((4S,5S)-1-(2-Bromo-4-(((3R,4R)-1-(5-chloro-2-methoxypyridin-4-yl)-3-methylpiperidin-4-yl)oxy)phenyl)-4-methyl-3-(trifluoromethyl)-4,5-dihydro-1H-pyrazol-5-yl)acetic acid] | 6.07
2 | C[C@@H]1C(C(F)(F)F)=NN(c2ccc(OC3CCN(c4cc(F)ccc4F)CC3)cc2)[C@H]1CC(=O)O [Example 38, 2-((4S,5S)-1-(4-((1-(2,5-Difluorophenyl)piperidin-4-yl)oxy)phenyl)-4-methyl-3-(trifluoromethyl)-4,5-dihydro-1H-pyrazol-5-yl)acetic acid] | 6.32
3 | COc1cc(N2CC[C@@H](Oc3ccc(N4N=C(C(F)(F)F)[C@@H](C)[C@@H]4CC(=O)O)cc3Br)[C@H](C)C2)c(Cl)cn1 [Example A4, 2-((4S,5S)-1-(3-Bromo-4-(((3R,4R)-1-(5-chloro-2-methoxypyridin-4-yl)-3-methylpiperidin-4-yl)oxy)phenyl)-4-methyl-3-(trifluoromethyl)-4,5-dihydro-1H-pyrazol-5-yl)acetic acid] | 7.35
4 | COc1cc(F)cc(N2CCC(Oc3ccc(N4N=C(C(F)(F)F)[C@@H](C)[C@@H]4CC(=O)O)cc3)CC2)n1 [Example 80, 2-((4S,5S)-1-(4-((1-(4-Fluoro-6-methoxypyridin-2-yl)piperidin-4-yl)oxy)phenyl)-4-methyl-3-(trifluoromethyl)-4,5-dihydro-1H-pyrazol-5-yl)acetic acid] | 5.59
5 | COc1ccc(F)c(N2CCC(Oc3ccc(N4N=C(c5ccc(C#N)cc5)[C@@H](C)[C@@H]4CC(=O)O)cc3)CC2)c1 [Example 91, 2-((4S,5S)-3-(4-Cyanophenyl)-1-(4-((1-(2-fluoro-5-methoxyphenyl)piperidin-4-yl)oxy)phenyl)-4-methyl-4,5-dihydro-1H-pyrazol-5-yl)acetic acid] | 7.21
6 | COc1ccc(F)c(N2CCC(Oc3ccc(N4N=C(C(F)(F)F)[C@@H](CC(C)C)[C@@H]4CC(=O)O)cc3)CC2)c1 (single isomer, unassigned) [Example 89, Isomer 1] | 5.10
7 | CCOc1cc(N2CC[C@@H](Oc3ccc(N4N=C(C(F)(F)F)[C@@H](C)[C@@H]4CC(=O)O)cc3)[C@H](C)C2)c(F)cn1 [Example 85, 2-((4S,5S)-1-(4-(((3R,4R)-1-(2-Ethoxy-5-fluoropyridin-4-yl)-3-methylpiperidin-4-yl)oxy)phenyl)-4-methyl-3-(trifluoromethyl)-4,5-dihydro-1H-pyrazol-5-yl)acetic acid] | 6.56
8 | C[C@@H]1C(C(F)(F)F)=NN(c2ccc(OC3CCN(c4cccc(F)c4)CC3)cc2)[C@H]1CC(=O)O [Example 48, 2-((4S,5S)-1-(4-((1-(3-Fluorophenyl)piperidin-4-yl)oxy)phenyl)-4-methyl-3-(trifluoromethyl)-4,5-dihydro-1H-pyrazol-5-yl)acetic acid] | 5.64
9 | COc1ccc(C#N)c(N2CCC(Oc3ccc(N4N=C(C(F)(F)F)[C@@H](C)[C@@H]4CC(=O)O)cc3)CC2)c1 [Example 21, 2-((4S,5S)-1-(4-((1-(2-Cyano-5-methoxyphenyl)piperidin-4-yl)oxy)phenyl)-4-methyl-3-(trifluoromethyl)-4,5-dihydro-1H-pyrazol-5-yl)acetic acid] | 6.17
10 | C[C@@H]1C(C(F)(F)F)=NN(c2ccc(OC3CCN(c4ccccc4Cl)CC3)cc2)[C@H]1CC(=O)O [Example 37, 2-((4S,5S)-1-(4-((1-(2-Chlorophenyl)piperidin-4-yl)oxy)phenyl)-4-methyl-3-(trifluoromethyl)-4,5-dihydro-1H-pyrazol-5-yl)acetic acid] | 6.35
11 | CC(C)c1cccc(N2CCC(Oc3ccc(N4N=C(C(F)(F)F)[C@@H](C)[C@@H]4CC(=O)O)cc3)CC2)c1 [Example 73, 2-((4S,5S)-1-(4-((1-(3-Isopropylphenyl)piperidin-4-yl)oxy)phenyl)-4-methyl-3-(trifluoromethyl)-4,5-dihydro-1H-pyrazol-5-yl)acetic acid] | 5.67
12 | COc1ccc(Cl)c(N2CCC(Oc3ccc(N4N=C(C(F)(F)F)[C@@H](C)[C@@H]4CC(=O)O)cc3)CC2)n1 [Example 76, 2-((4S,5S)-1-(4-((1-(3-Chloro-6-methoxypyridin-2-yl)piperidin-4-yl)oxy)phenyl)-4-methyl-3-(trifluoromethyl)-4,5-dihydro-1H-pyrazol-5-yl)acetic acid] | 6.19
13 | CCOc1ccc(F)c(N2CCC(Oc3ccc(N4N=C(C(F)(F)F)[C@@H](C)[C@@H]4CC(=O)O)cc3)C(C(C)C)C2)c1 (single isomer, unassigned) [Example 26 (Isomer 1)] | 5.72
14 | COc1cc(N2CCC(Oc3ccc(N4N=C(C(F)(F)F)[C@@H](C)[C@@H]4CC(=O)O)cc3)C(F)C2)c(Cl)cn1 (single isomer, unassigned) [Example A1, Isomer 2] | 6.66
15 | C[C@@H]1C(C(F)(F)F)=NN(c2ccc(OC3CCN(c4ncccc4F)CC3)cc2)[C@H]1CC(=O)O [Example 41, 2-((4S,5S)-1-(4-((1-(3-Fluoropyridin-2-yl)piperidin-4-yl)oxy)phenyl)-4-methyl-3-(trifluoromethyl)-4,5-dihydro-1H-pyrazol-5-yl)acetic acid] | 6.20
16 | C[C@@H]1C(C(F)(F)F)=NN(c2ccc(OC3CCN(c4ccccn4)CC3)cc2)[C@H]1CC(=O)O [Example 74, 2-((4S,5S)-4-Methyl-1-(4-((1-(pyridin-2-yl)piperidin-4-yl)oxy)phenyl)-3-(trifluoromethyl)-4,5-dihydro-1H-pyrazol-5-yl)acetic acid] | 5.58
17 | CCOc1cc(N2CC[C@@H](Oc3ccc(N4N=C(C(F)(F)F)[C@@H](C)[C@@H]4CC(=O)O)cc3)[C@H](C)C2)c(Cl)cn1 [Example 83, 2-((4S,5S)-1-(4-(((3R,4R)-1-(5-Chloro-2-ethoxypyridin-4-yl)-3-methylpiperidin-4-yl)oxy)phenyl)-4-methyl-3-(trifluoromethyl)-4,5-dihydro-1H-pyrazol-5-yl)acetic acid] | 6.65
18 | COc1ccc(Cl)c(N2CCC(Oc3ccc(N4N=C(C(F)(F)F)[C@@H](C)[C@@H]4CC(=O)O)cc3)CC2)c1 [Example 33, 2-((4S,5S)-1-(4-((1-(2-Chloro-5-methoxyphenyl)piperidin-4-yl)oxy)phenyl)-4-methyl-3-(trifluoromethyl)-4,5-dihydro-1H-pyrazol-5-yl)acetic acid] | 6.99
19 | Cc1cccc(F)c1N1CCC(Oc2ccc(N3N=C(C(F)(F)F)[C@@H](C)[C@@H]3CC(=O)O)cc2)CC1 [Example 42, 2-((4S,5S)-1-(4-((1-(2-Fluoro-6-methylphenyl)piperidin-4-yl)oxy)phenyl)-4-methyl-3-(trifluoromethyl)-4,5-dihydro-1H-pyrazol-5-yl)acetic acid] | 6.10
20 | CCC1C(C(F)(F)F)=NN(c2ccc(OC3CCN(c4cc(OC)ncc4Cl)CC3C)cc2)C1CC(=O)O (single isomer, unassigned) [Example 86, Isomer 2, 2-(1-(4-((1-(5-Chloro-2-methoxypyridin-4-yl)-3-methylpiperidin-4-yl)oxy)phenyl)-4-ethyl-3-(trifluoromethyl)-4,5-dihydro-1H-pyrazol-5-yl)acetic acid] | 6.22
21 | CCOc1cc(F)c(F)c(N2CCC(Oc3ccc(N4N=C(C(F)(F)F)[C@@H](C)[C@@H]4CC(=O)O)cc3)C(C)C2)c1 (single isomer, unassigned) [Example 10 (Isomer 2)] | 6.50
22 | Cc1ccc(Cl)c(N2CCC(Oc3ccc(N4N=C(C(F)(F)F)[C@@H](C)[C@@H]4CC(=O)O)cc3)CC2)c1 [Example 60, 2-((4S,5S)-1-(4-((1-(2-Chloro-5-methylphenyl)piperidin-4-yl)oxy)phenyl)-4-methyl-3-(trifluoromethyl)-4,5-dihydro-1H-pyrazol-5-yl)acetic acid] | 6.44
23 | CCOc1ccc(F)c(N2CCC(Oc3ccc(N4N=C(C(F)(F)F)[C@@H](C)[C@@H]4CC(=O)O)cc3)C(C(C)C)C2)c1 (single isomer, unassigned) [Example 26 (Isomer 2)] | 7.09
24 | CC(C)c1ccc(F)c(N2CCC(Oc3ccc(N4N=C(C(F)(F)F)[C@@H](C)[C@@H]4CC(=O)O)cc3)CC2)c1 [Example 66, 2-((4S,5S)-1-(4-((1-(2-Fluoro-5-isopropylphenyl)piperidin-4-yl)oxy)phenyl)-4-methyl-3-(trifluoromethyl)-4,5-dihydro-1H-pyrazol-5-yl)acetic acid] | 6.22
25 | C[C@@H]1C(C(F)(F)F)=NN(c2ccc(OC3CCN(c4cccnc4)CC3)cc2)[C@H]1CC(=O)O [Example 75, 2-((4S,5S)-4-Methyl-1-(4-((1-(pyridin-3-yl)piperidin-4-yl)oxy)phenyl)-3-(trifluoromethyl)-4,5-dihydro-1H-pyrazol-5-yl)acetic acid] | 5.11
26 | COc1ccc(F)c(N2CCC(Oc3ccc(N4N=C(c5ncccn5)C(C)C4CC(=O)O)cc3)CC2)c1 (single isomer, unassigned) [Example 22, Isomer 1, 2-(1-(4-((1-(2-Fluoro-5-methoxyphenyl)piperidin-4-yl)oxy)phenyl)-4-methyl-3-(pyrimidin-2-yl)-4,5-dihydro-1H-pyrazol-5-yl)acetic acid] | 5.69
27 | COc1cc(N2CC[C@H](Oc3ccc(N4N=C(C(F)(F)F)[C@@H](C)[C@@H]4CC(=O)O)cc3)[C@@H](C)C2)c(Cl)cn1 [Example 81, Isomer 1, 2-((4S,5S)-1-(4-((1-(5-Chloro-2-methoxypyridin-4-yl)-3-methylpiperidin-4-yl)oxy)phenyl)-4-methyl-3-(trifluoromethyl)-4,5-dihydro-1H-pyrazol-5-yl)acetic acid] | 6.50
28 | COc1cc(F)c(F)c(N2CCC(Oc3ccc(N4N=C(C(F)(F)F)[C@@H](C)[C@@H]4CC(=O)O)cc3)C(C)C2)c1 (single isomer, unassigned) [Example 8 (Isomer 2)] | 6.63
